Experimental data reported in patent US20070179143A1 (priority 2003, published 2007).

Assays:
HCT-15 = test: Cytotoxicity test to cancer cell lines (SRB method), HCT-15; details: Homo sapiens, HCT-15, 48 h, read-out: Cytotoxicity ED50 HCT15
SK-OV-3 = test: Cytotoxicity test to cancer cell lines (SRB method), SK-OV-3; type: cell-based; details: Homo sapiens, SK-OV-3, 48 h, read-out: Cytotoxicity ED50 SK-OV-3
[1] = system: human lung cancer cell line NCI-H460; test: Inhibiting effect on tumor growth, NCI-H460 xenografted nude mice
Protocol: Samples for the experiment were stored in a refrigerator all the time. […] The prepared sample is subject to be precipitated, so that tip sonication was performed right before the administration to disperse it well.
7 week-old female S.P.F. BALB/c nude mice, provided by Charles River Co., Japan, were used as test animals. The test animals were adapted in a Hepa-filter room over a week before the test. The temperature was 21±2° C., humidity was 55±5% and 12-hour light and dark cycle was automatically repeated in that lab. Solid feed (Cheiluedang) was sterilized by radioactive rays and drinking water was also sterilized by autoclave. Feed and water were taken by the animal freely. Cancer cell line used in this experiment was NCI-H460 (human lung tumor cell line) provided by Korea Research Institute of Bioscience and Biotechnology.
The tumor cell line, stored in liquid nitrogen, was thawed and cultured in a 37° C., 5% CO2 incubator for a required time. Upon completing the culture, all the cells were recovered and cell concentration of the culture fluid was adjusted using PBS to 3×10^7 cells/ml. The adjusted cell culture solution was injected hypodermically into armpit between right shoulder girdle and chest wall by 0.3 ml per mouse. From the next day of grafting, NCI-H460 xenografted nude mice were administered intraperitoneal everyday with the sample solution by 0.2 ml/20 g of weight, once a day.
After the grafting of tumor cells, the volume of a tumor in each individual was measured in three dimensions by using a vernier caliper, which was represented in the below <Mathematical Formula 2>. Tumor volume=(length×width×height)/2 <Mathematical Formula 2>
Body weight changes of animal were measured three times a week. Each xenografted nude mouse was sacrificed to separate a tumor, which was then weighed.

SK-MEL-2 = test: Cytotoxicity test to cancer cell lines (SRB method), SK-MEL-2; type: cell-based; details: Homo sapiens, SK-MEL-2, 48 h, read-out: Cytotoxicity ED50 SK-MEL-2
MCF7 = test: Cytotoxicity test to cancer cell lines (SRB method), MCF7; details: read-out: Cytotoxicity ED50 MCF-7, MCF-7, 48 hours
Protocol: (§4) Cytotoxicity to A549 (Korea Research Institute of Chemical Technology), SK-OV-3 (Korea Research Institute of Chemical Technology), SK-MEL-2 (Korea Research Institute of Chemical Technology), HCT-15 (Korea Research Institute of Chemical Technology) and MCF7 (Korean Cell Line Bank, Seoul National University School of medicine) cells was measured by Sulforhodamin-B (SRB) method (1989, National Cancer Institute (NCI)) which was developed for the measurement of in vitro anticancer activity of a drug. Cells were separated using 0.25% trypsin-EDTA solution, leading to the preparation of a cell suspension by 5×10^318 2×10^4 cells/well. Then, the suspension was distributed into a 96 well plate by 100 μl/well, which was cultured in a 37° C., 5% CO2 incubator for 24 hours. Compounds prepared in examples of the present invention were used as a sample. Precisely, the compound was dissolved in dimethylsulfoxide and diluted with RPMI 1640 medium before being used as a sample. The final concentration of the sample used varied ranging 1 μM˜0.00001 μM. The medium was removed from the 96 well plate and then diluted sample solution was added by 100 μl/well, followed by further culture in a 37° C., 5% CO2 incubator for 48 hours. Tz (time zero) plate was collected from the point of adding the sample. Upon completing the culture, the medium was removed from each well along with Tz plate, then 10% trichloroacetic acid (TCA) was added by 100 μl/well. The plate was left at 4° C. for 1 hour to let cells be fixed on the floor of the plate. After cells were fixed completely, the plate was washed with water 5-6 times to remove the remaining trichloroacetic acid solution completely and moisture was completely dried at room temperature. 0.4% Sulforhodamine-B was dissolved in 1% acetic acid solution to prepare a staining solution. Cells were stained for 30 minutes with a dye added by 100 μl to each well of the completely dried plate. Then, the plate was washed with 1% acetic acid solution 5-6 times to remove sulforhodamine-B remained uncombined with cells. Then, the plate was dried at room temperature. 10 mM Tris solution was added by 100 μ/well thereto to dissolve the dye, and optical density (OD) was measured at 520 nm with a micro plate reader.
(§5) ED50 (concentration that inhibits cancer cell growth 50%, 5.0% effective dose, nM/ml) of the sample to cancer cell was calculated as follows. OD value at the point of beginning the culture with the sample was determined as Tz (time zero) value. OD value of a well to be cultured without the sample was determined as a control value (C). OD value of a well pretreated with the sample was determined as experimental value (T). After calculating Tz, C and T, cytotoxicity of the sample was measured by the below <Mathematical Formula 1>. T≦Tz, (T−Tz)/(C−Tz)×100 T>Tz, (T−Tz)/Tz×10,0 <Mathematical Formula 1>
(§6) ED50, the concentration that can inhibit cancer cell growth by 50%, was calculated by using a regression analysis of lotus program based on the degree of cytotoxicity obtained by the <Mathematical Formula 1>.

A549 = test: Cytotoxicity test to cancer cell lines (SRB method), A549; details: Homo sapiens, A549, 48 h, read-out: Cytotoxicity ED50 A549
Protocol: as §4, §5, §6

[2] = Body weight change of NCI-H460 xenografted nude mice; type: in vivo, BALB/c nude mouse
ICR mice = test: in vivo; details: for Death Total: ICR mice, 7 days, deaths/animals; for Test Day (Death) 2: deaths on day 2; for Test Day (Death) 5: deaths on day 5; for Test Day (Death) 1: deaths on day 1
Protocol: (§1) 5-week-old ICR mice having the weight of 25-35 g (SPF, SLC Co. Japan) were used as test animals. A pair of female and male of the mice was given for the test of each compound. Group T2, T3, T4 and T5 were arranged (10 animals per group) for the test of acute toxicity of the compound prepared in the Example 12. […] Control group (T1) was administered with only a solvent without the compound of the Example 12.
(§2) For comparison, colchicine was injected in the test animals by the same method as described in the above. The group treated with colchicine was composed of 6 mice.
(§3) Taxol produced by Bristol Myers Sqibb Co. was also used for comparison, and the injection and the test of acute toxicity were performed by the same method as described in the above.

in vivo = details: ICR, mouse, in vivo
Protocol: as §1, §2, §3

[3] = 10 mg/kg intraperitoneal once a day, Day 14
[4] = 10 mg/kg intraperitoneal once a day
[5] = 2 mg/kg intraperitoneal once a day
[6] = 2.5 mg/kg intraperitoneal once a day

## CCOc1cc2c(c(OC)c1OC)-c1ccc(SC)c(=O)cc1[C@@H](NC(=O)c1cccc(CO[N+](=O)[O-])c1F)CC2 [Example 8, N-[(7S)-3-ethoxy-1,2-dimethoxy-10-methylsulfanyl-9-oxo-5,6,7,9-tetrahydro-benzo[a]heptalen-7-yl]-2-fluoro-3-nitrooxymethyl-benzamide]
HCT-15
  EC50: 0.03 nM
SK-OV-3
  EC50: 0.04 nM
[1]; 10 mg/kg
  inhibition rate of the tumor volume: 85%
[1]; 10 mg/kg intraperitoneal once a day, Day 0
  Tumor volume Day 0: 0.0 ± 0.0
[1]; 10 mg/kg intraperitoneal once a day, Day 4
  Tumor volume Day 4: 18.0 ± 3.7
[1]; 10 mg/kg intraperitoneal once a day, Day 7
  Tumor volume Day 7: 25.2 ± 12.8
[1]; 10 mg/kg intraperitoneal once a day, Day 9
  Tumor volume Day 9: 29.6 ± 13.8
[1]; 10 mg/kg intraperitoneal once a day, Day 11
  Tumor volume Day 11: 35.2 ± 14.0
[1]; [3]
  Tumor Weight Day 14: 143.4 ± 57.8 mg
  Tumor volume Day 14: 44.5 ± 15.0
[1]; comparing to solvent only (V.C-1, V.C-2) or positive control (taxol, adriamycin)
  size and weight of a tumor (in words): remarkably decreased
SK-MEL-2
  EC50: 0.01 nM
MCF7
  EC50: 0.01 nM
A549
  EC50: 0.02 nM
[2]; [4]
  Body weight Change Day 1: 100.0 ± 0.0%
  Body weight Change Day 3: 103.5 ± 2.2%
  Body weight Change Day 7: 99.8 ± 4.3 %
  Body weight Change Day 9: 92.3 ± 4.1 %
  Body weight Change Day 11: 89.3 ± 3.7 %
  Body weight Change Day 14: 89.4 ± 5.3 %
[2]; comparing to solvent only or positive control
  decrease of the weight of the mouse: about 10%

## COc1cc2c(c(OC)c1OC)-c1ccc(OC)c(=O)cc1[C@@H](NC(C)=O)CC2 [Colchicine]
HCT-15
  EC50: 9 nM
ICR mice; 0.5 mg/kg
  Death Total: 0/6
ICR mice; 1.0 mg/kg
  Death Total: 0/6
ICR mice; 2.0 mg/kg
  Death Total: 3/6
ICR mice; 2.0 mg/kg, deaths on day 3
  Test Day (Death) 3: 1
ICR mice; 2.0 mg/kg, deaths on day 6
  Test Day (Death) 6: 2
ICR mice; 5.0 mg/kg
  Death Total: 5/5
  Test Day (Death) 2: 3
  Test Day (Death) 5: 1
ICR mice; 5.0 mg/kg, deaths on day 4
  Test Day (Death) 4: 1
In vivo; both
  LD50 at 7 days: 2 mg/kg
SK-OV-3
  EC50: 18 nM
SK-MEL-2
  EC50: 6 nM
A549
  EC50: 21 nM

## COc1cccc2c1C(=O)c1c(O)c3c(c(O)c1C2=O)C[C@@](O)(C(=O)CO)C[C@@H]3O[C@H]1C[C@H](N)[C@H](O)[C@H](C)O1 [Doxorubicin, reference compound]
HCT-15
  EC50: 25 nM
SK-OV-3
  EC50: 47 nM
[1]; 2 mg/kg intraperitoneal once a day, Day 14
  Tumor Weight Day 14: 534.1 ± 87.9 mg
SK-MEL-2
  EC50: 16 nM
MCF7
  EC50: 50 nM
A549
  EC50: 13 nM
[2]; [5]
  Body weight Change Day 1: 100.0 ± 0.0%
  Body weight Change Day 3: 105.0 ± 4.1%
  Body weight Change Day 7: 103.9 ± 5.5%
  Body weight Change Day 9: 100.5 ± 4.6 %
  Body weight Change Day 11: 96.4 ± 3.5 %
  Body weight Change Day 14: 85.1 ± 1.8 %

## CC(=O)O[C@H]1C(=O)[C@@]2(C)[C@H]([C@H](OC(=O)c3ccccc3)[C@]3(O)C[C@H](OC(=O)[C@H](O)[C@@H](NC(=O)c4ccccc4)c4ccccc4)C(C)=C1C3(C)C)[C@]1(OC(C)=O)CO[C@@H]1C[C@@H]2O [Paclitaxel, reference compound]
HCT-15
  EC50: 0.1 nM
ICR mice; 4.0 mg/kg
  Death Total: 0/5
ICR mice; 6.0 mg/kg
  Death Total: 1/5
  Test Day (Death) 2: 1
ICR mice; 9.0 mg/kg
  Death Total: 2/5
  Test Day (Death) 5: 2
ICR mice; 13.0 mg/kg
  Death Total: 4/5
  Test Day (Death) 1: 2
  Test Day (Death) 2: 2
ICR mice; 20.0 mg/kg
  Death Total: 5/5
  Test Day (Death) 1: 5
In vivo; iv
  LD50: 9 to 13 mg/kg
SK-OV-3
  EC50: 1.2 nM
SK-MEL-2
  EC50: 0.1 nM
MCF7
  EC50: 0.9 nM
A549
  EC50: 0.3 nM
[2]; [6]
  Body weight Change Day 1: 100.0 ± 0.0%
  Body weight Change Day 3: 106.0 ± 1.5%
  Body weight Change Day 7: 99.2 ± 4.0 %
  Body weight Change Day 9: 97.1 ± 0%

## COc1cc2c(c(OC)c1OC)-c1ccc(SC)c(=O)cc1[C@@H](NC(=O)c1cccc(COC(=O)CCCO[N+](=O)[O-])c1)CC2 [Example 34, 4-nitrooxybutyric acid-3-[(7S)-1,2,3-trimethoxy-10-methylsulfanyl-9-oxo-5,6,7,9-tetrahydro-benzo[a]heptalen-7-yl-carbamoyl]-benzylester]
HCT-15
  EC50: 0.01 nM
SK-OV-3
  EC50: 0.01 nM
SK-MEL-2
  EC50: 0.01 nM
MCF7
  EC50: 0.01 nM
A549
  EC50: 0.06 nM

## COc1c(OC2CCCC2)cc2c(c1OC)-c1ccc(SC)c(=O)cc1[C@@H](NC(=O)c1cccc(CO[N+](=O)[O-])c1)CC2 [Example 7, N-[(7S)-3-cyclopentyloxy-1,2-dimethoxy-10-methylsulfanyl-9-oxo-5,6,7,9-tetrahydro-benzo[a]heptalen-7-yl]-3-nitrooxymethyl-benzamide]
HCT-15
  EC50: > 50 nM
SK-OV-3
  EC50: > 50 nM
SK-MEL-2
  EC50: > 50 nM
MCF7
  EC50: > 50 nM
A549
  EC50: > 50 nM
